One test relates to 5-HT2B receptors. As to the kind of experiment: Function test based on 5-HT2B receptor tissue (pig pulmonary artery, 5-HT-induced relaxation). The test is classed as cell-based. Conditions: for 5-HT2B pA2 value: antagonism of 5-HT-induced relaxation, antagonist conc. (nM). The protocol: The test was an in vitro function test to characterize 5-HT2B receptors in a pig's pulmonary artery. The pig's pulmonary artery was prepared as follows: Small branches were dissected from the pulmonary artery and cautiously freed of organ tissue and connective tissue. Up to six rings of the artery (length 2-3 mm and width 1.5-2 mm) were hung in horizontal orientation between two L-shaped platinum hooks (150 μm in diameter) and fixed in an organ bath containing 10 ml of modified Krebs-Henseleit buffer composed as follows: 118 mM NaCl, 4.7 mM KCl, 2.5 mM CaCl2, 1.2 mM MgSO4, 1.2 mM KH2PO4, 25 mM NaHCO3, and 11 mM D-glucose. A continuous flow of a gas mixture of 95% O2 and 5% CO2 passed through the solution which was kept at a constant temperature of 35° C. The preparations were connected to an isometric power converter (Hugo Sachs Elektronik, March, Germany), and voltage changes were continuously recorded. The constant voltage in stationary condition was adjusted to 20 mN at the beginning of each experiment. During an initial stabilization period of 60 minutes, the bath medium was replaced every 20 minutes and the voltage was repeatedly adjusted to 20 mN. The artery preparations were stimulated at 45-minute intervals once with KCl (30 mM) and three times with prostaglandin-F2α (PGF2α, 3 μM) until the response by contraction was visible. The undamaged condition of the endothelium was evaluated functionally by measuring the extent of endothelium-dependent relaxation following application of bradykinin (10 nM). After the third PGF2α-induced contraction had stabilized, the relaxation response was examined for 5-HT by determining a cumulative concentration-response curve in the absence and presence of the antagonist. […].
The relaxation response to the test compound was examined using the same method as with 5-HT to test for agonistic activity. The concentration of the agonist was increased in increments at the time when the response signal had reached a plateau. The plateau was typically reached within 2 to 4 minutes. The relaxation effects were expressed as a percentage of the PGF2α-induced contraction. The antagonists were added 30 minutes before the recording of the agonist concentration response curves started. The effects of the antagonists were examined in ring segments that were adjacent to the reference segments.

The target of test [1] is T1, 5-HT2A receptors (Rattus norvegicus, UniProt P14842).
T1 construct: characterizing 5-HT2A receptors in rat's caudal arteries; from tissue; host or cells: rat anterior caudal artery segments, endothelium stripped (male Wistar rats)
T1 sequence (P14842 whole entry): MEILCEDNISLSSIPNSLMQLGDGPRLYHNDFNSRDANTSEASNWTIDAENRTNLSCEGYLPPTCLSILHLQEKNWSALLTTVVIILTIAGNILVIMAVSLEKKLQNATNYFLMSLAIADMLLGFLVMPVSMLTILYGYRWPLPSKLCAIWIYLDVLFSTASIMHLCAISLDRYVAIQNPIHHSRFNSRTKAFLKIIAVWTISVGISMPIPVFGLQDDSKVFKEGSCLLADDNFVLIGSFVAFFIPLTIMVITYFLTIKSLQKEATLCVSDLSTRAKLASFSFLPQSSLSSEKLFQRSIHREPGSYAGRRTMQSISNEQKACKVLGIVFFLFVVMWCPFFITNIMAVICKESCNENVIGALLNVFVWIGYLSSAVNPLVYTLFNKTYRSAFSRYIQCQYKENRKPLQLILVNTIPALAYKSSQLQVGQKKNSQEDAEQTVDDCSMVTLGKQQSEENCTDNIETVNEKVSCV
As to the kind of experiment: Function test based on 5-HT2A receptor tissue (rat caudal artery, 5-HT concentration-response curves). Format: cell-based. The note with it: for 5-HT2A pA2 value: rat caudal artery without endothelium, antagonism of 5-HT, antagonist conc. (nM). From the text:
The example below describes an in-vitro function test for characterizing 5-HT2A receptors in rat's caudal arteries.
Male Wistar rats (250-300 g) were killed by suffocation. The anterior caudal artery was dissected fast and cleared of attached connective tissue. A stainless steel wire (0.3 mm in diameter) was introduced into the artery to strip off the endothelium. […] A continuous flow of a gas mixture of 95% O2 and 5% CO2 passed through the solution which was kept at a constant temperature of 37° C. […] The constant voltage was adjusted to 5 mN at the beginning of each experiment. During an equilibrium period of 120 minutes, the preparations were stimulated once after 60 minutes with 5-HT (1 μM).
Three cumulative concentration-response curves (CRC) were determined for each artery segment in these experiments for the study of partial agonists. The first CRC was obtained for 5-HT, the second that followed 60 minutes later for the partial agonist. Finally, the third CRC was obtained 10-15 minutes after the second CRC without washing with 5-HT and using the highest agonist concentration (0.3-3 μM). Additional experiments determined two CRCs at an interval of 60 minutes as described above. The first CRC was determined for 5-HT. The second CRC was determined to test the partial agonist in the presence of ketanserin. The preparations were incubated for 30 minutes with a ketanserin solution (3 nM).
The axial shift to the right of the curves determined in the presence of ketanserin was compared to the shift determined for the respective control preparation in the absence of ketanserin. In these experiments using ketanserin, two separate CRCs to 5-HT were obtained from each artery segment at a 90-minute interval. For the antagonists, the preparations were incubated 60 minutes prior to determining the second curve. Prazosin (0.1 μM) and cocaine (6 μM) were present in the solution during these experiments to block the α1-adrenoceptors and neuronal absorption of 5-HT.

For test [2], the target named is T1, 5-HT2A receptors. Conditions: reference compounds marked *; values from H. Pertz (1996) Planta Med. 62, pp. 387-392; cited from earlier work.

Here are results for nine compounds from patent US7622476B2, “Methods of using 1-allyl ergot alkaloid derivatives to treat migraines” (priority 2002, dated 2009).

The structures appear in SMILES notation. Where two headings read alike, the source gives them in different places. Marks after values point to notes of the source that are not given here.

Consider `C=CCn1cc2c3c(cccc31)[C@H]1C[C@@H](C(=O)N[C@]3(C)O[C@@]4(O)C5CCCN5C(=O)[C@H](Cc5ccccc5)N4C3=O)CN(C)[C@@H]1C2` (stereo partly shown) [1-Allyl dihydroergotamine], for which, in the test with 5-HT2B receptors, the “5-HT2B pA2 value” came to 9.30.
Consider `C=CCn1cc2c3c(cccc31)C1=C[C@@H](C(=O)N[C@]3(C)O[C@@]4(O)C5CCCN5C(=O)[C@H](Cc5ccccc5)N4C3=O)CN(C)[C@@H]1C2` (stereo partly shown) [1-Allyl ergotamine], for which the “5-HT2B -logKp, calculated according to Kenakin” value on 5-HT2B receptors (printed in the pA2 column, marked **) is given as 9.11**.
Consider `C=CCn1cc2c3c(cccc31)[C@H]1C[C@@H](C)CN(C)[C@@H]1C2` [1-Allyl festuclavine], for which, on 5-HT2A receptors [1], the “5-HT2A pA2 value” was 7.89. For the same compound, the “5-HT2B pA2 value” in the test on 5-HT2B receptors was determined as 6.74.
`C=CCn1cc2c3c(cccc31)C1=CC(NC(=O)N(CC)CC)CN(C)C1C2` (stereo not shown) [1-Allyl lisuride]: the “5-HT2B pA2 value” in the test with 5-HT2B receptors is 8.17.
For `C=CCn1cc2c3c(cccc31)[C@@H]1C[C@H](NC(=O)N(CC)CC)CN(C)[C@H]1C2` [1-Allyl terguride, 1-allyl-(5R,8S,10R)-terguride], the Kb on 5-HT2A receptors [1] is 2 nM. Further, the “5-HT2B pA2 value” with 5-HT2B receptors was 7.67.
The matching figures for `C=CCn1cc2c3c(cccc31)C1=C[C@@H](CO)CN(C)[C@@H]1C2` [1-Allyl-lysergol, 1-Allyl lysergol]: 3.55 nM and 7.61.
For `CCN(CC)C(=O)N[C@H]1C=C2c3cccc4[nH]cc(c34)C[C@H]2N(C)C1` [Lisuride, reference compound], the “5-HT2B pA2 value” with 5-HT2B receptors was found to be 10.32.
Consider `CN1C[C@H](CO)C=C2c3cccc4[nH]cc(c34)C[C@H]21` [Lysergol], for which the “5-HT2A pA2 value” at 5-HT2A receptors [2] is 6.88.
Take `CCN(CC)C(=O)N[C@H]1C[C@@H]2c3cccc4[nH]cc(c34)C[C@H]2N(C)C1` [Terguride, reference compound]: the “5-HT2A pA2 value” on 5-HT2A receptors [1] was found to be 8.38. In the test on 5-HT2B receptors, the “5-HT2B pA2 value” stood at 8.49.
